The test system of data set [1] is TNFR1. The experiment in a line: Human NP cell CRISPRi: TNFR1 knockdown (qRT-PCR). The class given is cell-based. The following applies: primary human NP cells. The procedure:
Quantitative RT-PCR was performed to identify TNFR1 knockdown in these primary human NP cells. Additionally, flow-cytometry was performed to determine transduction efficiency in human NP cells.
On the technique in general: Quantitative PCR measures a nucleic acid by following its amplification.

Data set [2] relates to TNFR1. Description: Guide RNA screening in HEK293T cells (qPCR), TNFR1. The class given is cell-based, human. Particulars: HEK293T cells expressing dCas9-KRAB, 48 hours post transfection, relative to non-target gRNA. The text has this:
(§1) Using the UCSC genome browser (GRCh37/hg19), the 5-UTR and the promoter region, 1000 base pairs upstream were selected and input into the CRISPR design tool (crispr.mit.edu). This tool outputs 20 bp gRNAs that are followed on their 3′ end by the PAM sequence NGG, which is specific to the CRISPR-Cas9 system derived from Streptococcus pyogenes. Additionally, the CRISPR design tool scores the potential gRNA sequences based on the number of off-target sites they have and how many are within genes (e.g., higher score means less off-target sites). […]
(§2) Total RNA was harvested from cells using Purelink RNA mini kit (Ambion). […] Changes in gene expression were expressed as fold changes in mRNA expression relative to the nontarget control, and normalized to GAPDH mRNA expression, using the ΔΔCt method.
(§3) HEK293T cells stably expressing dCas9-KRAB GFP were seeded in 6-well plates at a density of 600,000 cells/well in DMEM-HG with 10% FBS. […] Subsequently each sample was then run through taqman qPCR using primers for TNFRSF1A or IL1R1 and housekeeping gene GAPDH to quantify downregulation of each gene by each guide. Gene downregulation was quantified using the ΔΔCt method to characterize fold change relative non-target gRNA expressing cells.

The subject of data set [3] is NF-κB activity in HEK293T cells. Description: NF-κB activity assay in HEK293T cells dosed with TNF-α. The class given is cell-based, human. The procedure:
HEK293T cells and hADMSCs were transduced with the earlier mentioned NF-κB reporter vector and analyzed for changes in NF-κB activity in response to dosing cells with TNF-α/IL-1β (RnD systems, ProSpec). To further describe, cells expressing the NF-κB reporter were plated in white 96-well plates (HEK293T cells at 25,000 cells/well and hADMSCs at 5000 cells/well) and allowed to attach overnight. The next day cells were dosed with the appropriate amounts of inflammatory cytokines (0, […], 1, and/or 10 ng/mL of TNF-α/IL-1β) for 24 hours. At 24 hours luminescence corresponding to NF-κB activity was measured in one set of cells using the bright glo assay (Promega) and cell number was measured on another set of cells under the same treatment using the real-time glo assay (Promega). Changes in NF-κB activity were quantified as a fold change in luminescence relative to the no dose control for each cell type, with NF-κB activity normalized to cell number.

In data set [4] the test system is IL1R1. The experiment in a line: Guide RNA screening in HEK293T cells (qPCR), IL1R1. Particulars: HEK293T cells expressing dCas9-KRAB, 48 hours post transfection, relative to non-target gRNA. The class given is cell-based, human.
Text: as §1, §2, §3

Data set [5] has as its target AKAP 150 (rat) (UniProt P24587). Description: cell-based or functional assay.
Data set [6] deals with human IL-6 (human) (UniProt P05231). The experiment in a line: cell-based or functional assay.
UniProt P05231, sequence (P05231 30-212 limits assumed): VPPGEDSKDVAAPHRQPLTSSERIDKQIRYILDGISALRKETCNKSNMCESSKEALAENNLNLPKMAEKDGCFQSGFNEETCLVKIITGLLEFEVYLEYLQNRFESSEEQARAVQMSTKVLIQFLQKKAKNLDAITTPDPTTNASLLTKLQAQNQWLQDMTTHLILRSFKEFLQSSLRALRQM

UniProt P24587, sequence (P24587 whole entry): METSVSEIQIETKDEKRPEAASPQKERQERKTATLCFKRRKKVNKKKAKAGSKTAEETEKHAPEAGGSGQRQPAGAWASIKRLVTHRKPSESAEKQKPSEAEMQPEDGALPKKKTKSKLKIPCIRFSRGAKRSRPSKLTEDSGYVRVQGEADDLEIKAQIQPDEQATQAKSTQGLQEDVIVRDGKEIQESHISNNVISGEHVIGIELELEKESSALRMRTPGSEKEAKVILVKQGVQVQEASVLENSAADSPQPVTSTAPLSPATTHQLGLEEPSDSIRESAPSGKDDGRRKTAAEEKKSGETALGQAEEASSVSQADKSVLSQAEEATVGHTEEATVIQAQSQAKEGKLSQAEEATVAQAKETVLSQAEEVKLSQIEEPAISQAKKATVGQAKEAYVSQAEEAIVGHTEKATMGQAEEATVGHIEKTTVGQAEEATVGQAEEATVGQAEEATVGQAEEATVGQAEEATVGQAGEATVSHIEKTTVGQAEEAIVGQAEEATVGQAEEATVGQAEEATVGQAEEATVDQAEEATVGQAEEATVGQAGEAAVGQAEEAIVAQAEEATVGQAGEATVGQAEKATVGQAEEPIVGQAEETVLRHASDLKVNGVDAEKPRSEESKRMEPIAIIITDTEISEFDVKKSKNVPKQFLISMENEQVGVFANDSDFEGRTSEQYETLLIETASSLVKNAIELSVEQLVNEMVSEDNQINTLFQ

Consider “5′-AUAAGCGUCCGACACAUGAU-3′ (expressed or natural sequence) [gRNA 4 for TNFR1, 82]”, for which the “TNFR1 knockdown in NP cells” value in data set [1] (with dCas9-KRAB) is on record as 55%; in data set [1] (with dCas9 alone) it was “no knockdown”. “5′-CAGUGUUGCAACAGCGGGAC-3′ (expressed or natural sequence) [gRNA 1 for TNFR1, 79]”: in data set [2], the TNFR1 gene downregulation result is reported as “up to 87%”. For the same substance, in data set [3] (0.15 ng/mL TNF-α), the “NF-κB activity at lowest dose” value was “no significant increase in NF-κB activity”. For the same substance, in data set [3] (24 hours of dosing with 0, 0.15, 1, and 10 ng/mL TNF-α), the “decreases in NF-κB activity” value is given as “up to 95%”. In turn, “5′-GGAGUCGCCAACUCAAUUCG-3′ (expressed or natural sequence) [gRNA 1 for IL1R1, 84]” registered an IL1R1 gene downregulation in data set [4] of 67%. For “AKAP inhibitor peptide St-Ht31 (Promega)”, the percentage of neurons firing at 39° C. in degenerative IVD conditioned media in data set [5] was 15.5%.

In data set [5], control peptide St-Ht31P (Promega) yielded a percentage of neurons firing at 39° C. in degenerative IVD conditioned media of 61.9%. In the case of “mouse isotype control antibody (Life Technologies)”, in data set [6], the T50 of neuron firing (Boltzmann fit) came to 38.2 ° C and the maximum firing response of DRG neurons stood at 66%.

The values above are taken from patent US10954513B2, “RNA-guided transcriptional regulation and methods of using the same for the treatment of back pain” (UNIVERSITY OF UTAH RESEARCH FOUNDATION, priority 2015, dated 2021).
